Assay results: patent US20170050957A1, “4-AMINO-6-(HETEROCYCLIC)PICOLINATES AND 6-AMINO-2-(HETEROCYCLIC)PYRIMIDINE-4-CARBOXYLATES AND THEIR USE AS HERBICIDES” (Dow AgroSciences LLC, priority 2013, published 2017)
Like-named read-outs stand apart in the source and are kept apart here.

Key:
[1] = test system: Key Grass and Sedge Weeds as well as Grass Crops; assay: Post-emergent Test II herbicidal activity (Table 16); type: in vivo; conditions: post-emergence, 336 h, 14 days after application; for pest or weed control at 35 g/ha: 35 g ai/ha; for pest or weed control at 70 g/ha: 70 g ai/ha; for pest or weed control at 140 g/ha: 140 g ai/ha
Summary of the method: (§1)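 Visual injury rating (0 = none, 100% = complete kill) made 14 d after treatment, relative to untreated plants. Compounds in an acetone/DMSO/aqueous crop-oil/surfactant spray, at top rate and serial 1/2×-1/16× rates, were applied at 187 L/ha overhead to first-second true leaf plants raised 7-21 d in greenhouse.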

[2] = test system: Key Broadleaf Weed and Crop Species; assay: Post-emergent Test II herbicidal activity (Table 15); type: in vivo; conditions: post-emergence, 336 h, 14 d; for pest or weed control at 35 g/ha: 35 g ai/ha; for pest or weed control at 70 g/ha: 70 g ai/ha; for pest or weed control at 140 g/ha: 140 g ai/ha
Summary of the method: as §1

[3] = Cyperus esculentus, yellow nutsedge (Cyperus esculentus), read-out: Visual Growth Reduction (%) 14 Days After Application CYPES
[4] = Echinochloa crus-galli, barnyardgrass (Echinochloa crus-galli), read-out: Visual Growth Reduction (%) 14 Days After Application ECHCG
[5] = Oryza sativa, rice (Oryza sativa), read-out: Visual Growth Reduction (%) 14 Days After Application ORYSA
[6] = Setaria faberi, giant foxtail (Setaria faberi), read-out: Visual Growth Reduction (%) 14 Days After Application SETFA
[7] = Triticum aestivum, wheat, spring (Triticum aestivum), read-out: Visual Growth Reduction (%) 14 Days After Application TRZAS
[8] = Zea mays, maize, corn (Zea mays), read-out: Visual Growth Reduction (%) 14 Days After Application ZEAMX
[9] = Abutilon theophrasti, velvetleaf (Abutilon theophrasti), read-out: Visual Growth Reduction (%) 14 Days After Application, ABUTH
[10] = Amaranthus retroflexus, redroot pigweed (Amaranthus retroflexus), read-out: Visual Growth Reduction (%) 14 Days After Application, AMARE
[11] = Brassica napus, oilseed rape, canola (Brassica napus), read-out: Visual Growth Reduction (%) 14 Days After Application, BRSNN
[12] = Chenopodium album, lambsquarters (Chenopodium album), read-out: Visual Growth Reduction (%) 14 Days After Application, CHEAL
[13] = Euphorbia heterophylla, wild poinsettia (Euphorbia heterophylla), read-out: Visual Growth Reduction (%) 14 Days After Application, EPHHL
[14] = Helianthus annuus, sunflower (Helianthus annuus), read-out: Visual Growth Reduction (%) 14 Days After Application, HELAN

SMILES | melting point [°C] | pest or weed control at 35 g/ha [1, 3] [%] | pest or weed control at 70 g/ha [1, 3] [%] | pest or weed control at 140 g/ha [1, 3] [%] | pest or weed control at 35 g/ha [1, 4] [%] | pest or weed control at 70 g/ha [1, 4] [%] | pest or weed control at 140 g/ha [1, 4] [%] | pest or weed control at 35 g/ha [1, 5] [%] | pest or weed control at 70 g/ha [1, 5] [%] | pest or weed control at 140 g/ha [1, 5] [%] | pest or weed control at 35 g/ha [1, 6] [%] | pest or weed control at 70 g/ha [1, 6] [%] | pest or weed control at 140 g/ha [1, 6] [%] | pest or weed control at 35 g/ha [1, 7] [%] | pest or weed control at 70 g/ha [1, 7] [%] | pest or weed control at 140 g/ha [1, 7] [%] | pest or weed control at 35 g/ha [1, 8] [%] | pest or weed control at 70 g/ha [1, 8] [%] | pest or weed control at 140 g/ha [1, 8] [%] | pest or weed control at 35 g/ha [2, 9] [%] | further results
COC(=O)c1nc(-c2cc3sccc3cc2F)nc(N)c1OC [Compound 3.22] | 168 | 0 to 29 | 0 to 29 | 0 to 29 | 0 to 29 | 0 to 29 | 0 to 29 | 0 to 29 | 0 to 29 | 0 to 29 | 0 to 29 | 0 to 29 | 0 to 29 | 0 to 29 | 0 to 29 | 0 to 29 | 0 to 29 | 0 to 29 | 0 to 29 | 0 to 29 | pest or weed control at 70 g/ha [2, 9]: 0 to 29%; pest or weed control at 140 g/ha [2, 9]: 0 to 29%; pest or weed control at 35 g/ha [2, 10]: 60 to 74%; pest or weed control at 70 g/ha [2, 10]: 95 to 100%; pest or weed control at 140 g/ha [2, 10]: 95 to 100%; pest or weed control at 35 g/ha [2, 11]: 0 to 29%; pest or weed control at 70 g/ha [2, 11]: 30 to 44%; pest or weed control at 140 g/ha [2, 11]: 60 to 74%; pest or weed control at 35 g/ha [2, 12]: 60 to 74%; pest or weed control at 70 g/ha [2, 12]: 75 to 84%; pest or weed control at 140 g/ha [2, 12]: 85 to 94%; pest or weed control at 35 g/ha [2, 13]: 95 to 100%; pest or weed control at 70 g/ha [2, 13]: 95 to 100%; pest or weed control at 140 g/ha [2, 13]: 95 to 100%; pest or weed control at 35 g/ha [2, 14]: 75 to 84%; pest or weed control at 70 g/ha [2, 14]: 85 to 94%; pest or weed control at 140 g/ha [2, 14]: 85 to 94%
COC(=O)c1nc(-c2cccc3cn[nH]c23)c(F)c(N)c1Cl [Compound 4.13] | 207 to 210 | 0 to 29 | 0 to 29 | 0 to 29 | 0 to 29 | 0 to 29 | 0 to 29 | 0 to 29 | 0 to 29 | 0 to 29 | 0 to 29 | 0 to 29 | 0 to 29 | 0 to 29 | 0 to 29 | 0 to 29 | 0 to 29 | 0 to 29 | 0 to 29 | 0 to 29 | pest or weed control at 70 g/ha [2, 9]: 0 to 29%; pest or weed control at 140 g/ha [2, 9]: 0 to 29%; pest or weed control at 35 g/ha [2, 11]: 0 to 29%; pest or weed control at 70 g/ha [2, 11]: 0 to 29%; pest or weed control at 140 g/ha [2, 11]: 0 to 29%; pest or weed control at 35 g/ha [2, 12]: 0 to 29%; pest or weed control at 70 g/ha [2, 12]: 0 to 29%; pest or weed control at 140 g/ha [2, 12]: 60 to 74%; pest or weed control at 35 g/ha [2, 13]: 0 to 29%; pest or weed control at 70 g/ha [2, 13]: 0 to 29%; pest or weed control at 140 g/ha [2, 13]: 0 to 29%; pest or weed control at 35 g/ha [2, 14]: 0 to 29%; pest or weed control at 70 g/ha [2, 14]: 0 to 29%; pest or weed control at 140 g/ha [2, 14]: 0 to 29%
